From paper PMC9181188 (International Journal of Molecular Sciences, 2022)
Converted amounts (≈) assume the structure as drawn. Like-named read-outs stand apart in the source and are kept apart here.

Columns and labels:
[1] = biological target: T1, S. aureus topoisomerase IV (Staphylococcus aureus, UniProt P0C1S7+P0C1U9); experiment: S. aureus topoisomerase IV decatenation assay; assay type: biochemical
T1 construct: purchased Inspiralis
Experimental: The assay was performed using S. aureus topoisomerase IV […] kit (Inspiralis). Kinetoplast DNA (kDNA) was the substrate for topoisomerase IV.

[2] = biological target: T2, S. aureus DNA gyrase (Staphylococcus aureus, UniProt P0A0K8+P20831); details: read-out: IC50 for Gyrase; inhibition of DNA supercoiling, 30 min at 37 °C
T2 sequence (P20831 whole entry): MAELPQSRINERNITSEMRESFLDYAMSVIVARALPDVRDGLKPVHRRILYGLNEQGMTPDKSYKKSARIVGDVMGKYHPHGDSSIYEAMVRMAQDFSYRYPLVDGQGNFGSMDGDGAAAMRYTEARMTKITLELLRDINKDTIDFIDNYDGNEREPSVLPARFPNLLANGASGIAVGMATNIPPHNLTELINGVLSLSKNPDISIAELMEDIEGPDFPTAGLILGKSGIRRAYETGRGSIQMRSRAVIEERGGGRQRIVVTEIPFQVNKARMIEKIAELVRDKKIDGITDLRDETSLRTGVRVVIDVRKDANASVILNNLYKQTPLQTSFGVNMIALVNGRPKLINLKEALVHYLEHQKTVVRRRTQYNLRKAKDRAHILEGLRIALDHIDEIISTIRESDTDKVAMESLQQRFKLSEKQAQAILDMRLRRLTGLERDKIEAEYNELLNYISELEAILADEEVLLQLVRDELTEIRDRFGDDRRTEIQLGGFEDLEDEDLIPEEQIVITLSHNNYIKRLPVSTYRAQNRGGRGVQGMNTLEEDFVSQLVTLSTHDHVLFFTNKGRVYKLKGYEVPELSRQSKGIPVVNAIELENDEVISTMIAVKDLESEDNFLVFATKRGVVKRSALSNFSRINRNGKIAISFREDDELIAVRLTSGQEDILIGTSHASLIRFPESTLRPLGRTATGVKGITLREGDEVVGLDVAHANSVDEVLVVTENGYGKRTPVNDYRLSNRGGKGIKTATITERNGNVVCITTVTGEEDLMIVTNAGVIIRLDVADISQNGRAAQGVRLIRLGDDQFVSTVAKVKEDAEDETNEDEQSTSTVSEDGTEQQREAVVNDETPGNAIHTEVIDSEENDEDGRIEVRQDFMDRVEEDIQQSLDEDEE
T2 sequence (P0A0K8 whole entry): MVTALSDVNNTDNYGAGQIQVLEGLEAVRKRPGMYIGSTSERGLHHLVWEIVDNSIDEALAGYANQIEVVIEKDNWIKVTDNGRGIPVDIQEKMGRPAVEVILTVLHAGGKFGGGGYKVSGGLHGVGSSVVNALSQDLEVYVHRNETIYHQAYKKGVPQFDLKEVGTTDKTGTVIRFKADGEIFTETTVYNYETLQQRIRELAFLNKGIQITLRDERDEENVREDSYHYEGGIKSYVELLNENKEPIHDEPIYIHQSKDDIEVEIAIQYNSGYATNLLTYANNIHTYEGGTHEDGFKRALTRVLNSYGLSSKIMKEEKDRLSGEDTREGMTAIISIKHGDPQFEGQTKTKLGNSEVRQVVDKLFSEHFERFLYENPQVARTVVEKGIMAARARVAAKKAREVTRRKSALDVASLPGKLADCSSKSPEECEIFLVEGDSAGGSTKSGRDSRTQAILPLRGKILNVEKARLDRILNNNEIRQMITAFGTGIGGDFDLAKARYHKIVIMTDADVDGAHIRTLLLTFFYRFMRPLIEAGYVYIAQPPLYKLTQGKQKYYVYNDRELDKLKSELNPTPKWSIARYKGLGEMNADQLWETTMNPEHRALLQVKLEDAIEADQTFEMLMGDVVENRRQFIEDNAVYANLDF
Experimental: (§1) The assay was performed using S. aureus DNA Gyrase Supercoiling kit (Inspiralis). […] Samples were vortexed, centrifuged, and 20 µL of the aqueous phase of each sample was loaded onto a 1% agarose gel and left for 30 min prior to electrophoresis to allow diffusion of salt. Electrophoresis was conducted in TAE buffer for 3 h at 50 V. Gels were stained with ethidium bromide and visualized under UV light in a transilluminator (ChemiDoc MP, Bio Rad, Warsaw, Poland).

[3] = tested on: SW480 cells; experiment: MTT assay, SW480; assay type: cell-based, human; details: for IC50: Homo sapiens, SW480, 72 h, human primary colon cancer, 72 h, MTT, mean ± SD; for SI SW480: SI = IC50 for normal cell line (HaCaT)/IC50 cancer cell line
[4] = tested on: SW620 cells; experiment: MTT assay, SW620; assay type: cell-based, human; details: for IC50: Homo sapiens, SW-620, 72 h, human metastatic colon cancer, 72 h, MTT, mean ± SD; for SI SW620: SI = IC50 for normal cell line (HaCaT)/IC50 cancer cell line
[5] = tested on: PC3 cells; experiment: MTT assay, PC3; assay type: cell-based, human; details: for IC50: human metastatic prostate cancer, 72 h, MTT, mean ± SD; for SI PC3: SI = IC50 for normal cell line (HaCaT)/IC50 cancer cell line
[6] = tested on: HaCaT cells; experiment: MTT assay, HaCaT normal cells; assay type: cell-based; details: human immortal keratinocyte cell line, 72 h, mean ± SD
[7] = tested on: S. aureus NCTC 4163; experiment: MIC, twofold microdilution, standard strain; assay type: cell-based; details: Staphylococcus aureus, NCTC4163; 18 h of treatment; read-out: MIC S. aureus NCTC 4163
[8] = tested on: S. aureus ATCC 25923; experiment: MIC, twofold microdilution, standard strain; assay type: cell-based; details: Staphylococcus aureus, ATCC25923; 18 h of treatment; read-out: MIC S. aureus ATCC 25923
[9] = tested on: S. aureus ATCC 6538; experiment: MIC, twofold microdilution, standard strain; assay type: cell-based; details: Staphylococcus aureus, ATCC6538; 18 h of treatment; read-out: MIC S. aureus ATCC 6538
[10] = tested on: S. aureus ATCC 29213; experiment: MIC, twofold microdilution, standard strain; assay type: cell-based; details: Staphylococcus aureus, ATCC29213; 18 h of treatment; read-out: MIC S. aureus ATCC 29213
[11] = tested on: S. epidermidis ATCC 12228; experiment: MIC, twofold microdilution, standard strain; assay type: cell-based; details: Staphylococcus epidermidis, ATCC12228; 18 h of treatment; read-out: MIC S. epidermidis ATCC 12228
[12] = tested on: S. epidermidis ATCC 35984; experiment: MIC, twofold microdilution, standard strain; assay type: cell-based; details: Staphylococcus epidermidis, ATCC35984; 18 h of treatment; read-out: MIC S. epidermidis ATCC 35984
[13] = tested on: E. coli ATCC 25922; experiment: MIC, twofold microdilution, standard strain; assay type: cell-based, Escherichia coli; details: for MIC: Escherichia coli, read-out: MIC E. coli ATCC 25922
[14] = tested on: P. aeruginosa ATCC 27853; experiment: MIC, twofold microdilution, standard strain; assay type: cell-based; details: Pseudomonas aeruginosa, ATCC27853; 18 h of treatment; read-out: MIC P. aeruginosa ATCC 27853
[15] = tested on: S. epidermidis KR 4047 825/19; experiment: MIC, clinical S. epidermidis strain; assay type: cell-based; details: Staphylococcus epidermidis, KR4047825/19, quinolone-resistant, 18 h of treatment
[16] = tested on: S. epidermidis KR 4243 829/19; experiment: MIC, clinical S. epidermidis strain; assay type: cell-based; details: Staphylococcus epidermidis, KR4243829/19, quinolone-susceptible, 18 h of treatment
[17] = tested on: S. epidermidis KR 4313 834/19; experiment: MIC, clinical S. epidermidis strain; assay type: cell-based; details: Staphylococcus epidermidis, KR4313834/19, quinolone-susceptible, 18 h of treatment
[18] = tested on: S. epidermidis KR 4358/2 840/19; experiment: MIC, clinical S. epidermidis strain; assay type: cell-based; details: Staphylococcus epidermidis, KR4358/2840/19; clinical S. epidermidis, quinolone-susceptible, 18 h of treatment; read-out: MIC KR 4358/2 840/19
[19] = tested on: S. epidermidis T 5253 845/19; experiment: MIC, clinical S. epidermidis strain; assay type: cell-based; details: Staphylococcus epidermidis, T5253845/19, quinolone-resistant, 18 h of treatment
[20] = tested on: S. epidermidis T 5399 848/19; experiment: MIC, clinical S. epidermidis strain; assay type: cell-based; details: Staphylococcus epidermidis, T5399848/19, quinolone-susceptible, 18 h of treatment
[21] = tested on: S. epidermidis T 5501 851/19; experiment: MIC, clinical S. epidermidis strain; assay type: cell-based; details: Staphylococcus epidermidis, T5501851/19, read-out: MIC T 5501 851/19, quinolone-susceptible, 18 h of treatment
[22] = tested on: M. tuberculosis H37Rv; experiment: MABA (microplate Alamar blue assay) MIC; assay type: cell-based; details: Mycobacterium tuberculosis, 336 h, 2 weeks of treatment, read-out: MIC M. tuberculosis H37Rv
[23] = tested on: M. tuberculosis Spec. 192 (Sensitive to Tuberculostatics); experiment: MABA (microplate Alamar blue assay) MIC; assay type: cell-based; details: Mycobacterium tuberculosis, 336 h, read-out: MIC M. tuberculosis Spec. 192 (Sensitive to Tuberculostatics)
[24] = tested on: standard staphylococci (S. aureus, S. epidermidis); experiment: MIC, standard Gram-positive strains as a group; assay type: cell-based; details: Staphylococcus aureus; range over standard Gram-positive strains; read-out: MIC against standard staphylococci
[25] = tested on: quinolone-susceptible clinical coagulase-negative staphylococci; experiment: MIC, quinolone-susceptible clinical isolates as a group; assay type: cell-based; details: Staphylococcus epidermidis; five quinolone-susceptible isolates; read-out: MIC against quinolone-susceptible clinical isolates
[26] = tested on: M. tuberculosis strains; experiment: MABA MIC, mycobacterial strains as a group; assay type: cell-based; details: Mycobacterium tuberculosis, read-out: MIC antimycobacterial (strain not specified)
[27] = biological target: T2, S. aureus DNA gyrase; experiment: biochemical
Experimental: as §1

[28] = tested on: SW480, SW620, and PC3 cancer cell lines; experiment: MTT assay, cancer cell lines as a group; assay type: cell-based, human; details: Homo sapiens, 72 h, all three cancer cell lines (SW480, SW620, PC3), read-out: IC50 against all tested cancer cell lines
[29] = tested on: quinolone-resistant isolates (KR 4047 and T5253); experiment: MIC, quinolone-resistant clinical isolates as a group; assay type: cell-based; details: Staphylococcus epidermidis, read-out: MIC against quinolone-resistant clinical isolates

T1 sequence (P0C1U9 whole entry): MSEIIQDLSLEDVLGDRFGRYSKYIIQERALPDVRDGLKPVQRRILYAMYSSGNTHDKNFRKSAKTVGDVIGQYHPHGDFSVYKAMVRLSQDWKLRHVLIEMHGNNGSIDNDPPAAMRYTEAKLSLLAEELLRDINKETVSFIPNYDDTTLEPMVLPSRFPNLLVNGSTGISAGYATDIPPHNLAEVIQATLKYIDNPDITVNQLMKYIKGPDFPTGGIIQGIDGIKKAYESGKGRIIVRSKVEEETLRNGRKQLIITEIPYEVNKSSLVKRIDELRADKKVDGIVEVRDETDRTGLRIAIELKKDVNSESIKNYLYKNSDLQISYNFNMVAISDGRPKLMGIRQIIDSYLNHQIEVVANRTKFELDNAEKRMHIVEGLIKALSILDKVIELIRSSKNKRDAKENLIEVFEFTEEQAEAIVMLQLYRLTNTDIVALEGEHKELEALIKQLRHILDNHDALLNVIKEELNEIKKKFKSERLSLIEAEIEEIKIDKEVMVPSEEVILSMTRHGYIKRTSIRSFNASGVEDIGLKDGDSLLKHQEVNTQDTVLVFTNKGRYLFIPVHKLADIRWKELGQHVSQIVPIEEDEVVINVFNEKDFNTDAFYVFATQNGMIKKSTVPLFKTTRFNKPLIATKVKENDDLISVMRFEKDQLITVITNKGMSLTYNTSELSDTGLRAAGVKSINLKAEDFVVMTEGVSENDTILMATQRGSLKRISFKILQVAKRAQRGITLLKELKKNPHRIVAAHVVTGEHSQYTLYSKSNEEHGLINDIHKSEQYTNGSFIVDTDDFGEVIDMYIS
T1 sequence (P0C1S7 whole entry): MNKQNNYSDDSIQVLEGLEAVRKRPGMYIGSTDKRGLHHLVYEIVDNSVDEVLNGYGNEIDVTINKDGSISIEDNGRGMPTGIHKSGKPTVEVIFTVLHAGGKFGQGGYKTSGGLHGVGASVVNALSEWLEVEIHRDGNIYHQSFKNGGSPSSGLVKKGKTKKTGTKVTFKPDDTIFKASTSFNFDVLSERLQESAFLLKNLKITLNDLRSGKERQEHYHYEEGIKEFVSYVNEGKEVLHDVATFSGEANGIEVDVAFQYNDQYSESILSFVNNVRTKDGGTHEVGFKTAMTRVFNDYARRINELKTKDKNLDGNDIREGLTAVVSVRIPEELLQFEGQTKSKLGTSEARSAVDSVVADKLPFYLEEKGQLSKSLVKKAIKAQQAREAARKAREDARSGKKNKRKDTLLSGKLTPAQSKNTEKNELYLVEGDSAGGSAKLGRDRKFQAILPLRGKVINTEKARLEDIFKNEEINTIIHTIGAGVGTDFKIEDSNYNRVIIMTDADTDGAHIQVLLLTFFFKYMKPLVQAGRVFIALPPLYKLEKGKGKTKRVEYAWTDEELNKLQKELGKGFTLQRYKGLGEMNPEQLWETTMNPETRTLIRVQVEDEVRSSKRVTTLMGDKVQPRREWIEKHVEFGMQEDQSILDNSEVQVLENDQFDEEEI

Q: Which results are given for CCC=CCC=CCC=CCC=CCC=CCC=CCCC(=O)N1CCN(c2cc3c(cc2F)c(=O)c(C(=O)O)cn3C2CC2)CC1 [Compound 8]?
A: IC50 ([1]; read-out: IC50 for Topo IV, inhibition of kDNA decatenation, 30 min at 37 °C): > 99.7 µM; IC50 [2]: > 99.7 µM

Q: Which IC50 [3] does the source give for COc1c(N2CC3CCCN(C(C)=O)C3C2)c(F)cc2c(=O)c(C(=O)O)cn(C3CC3)c12 (stereo not shown) [Compound 14m, 7-(1-Acetyl-octahydro-pyrrolo[3,4-b]pyridin-6-yl)-1-cyclopropyl-6-fluoro-8-methoxy-4-oxo-1,4-dihydro-quinoline-3-carboxylic acid] here?
A: The IC50 was 14.3 ± 3.2 µM.

Q: And the “SI SW480” value [3]?
A: Its value is 6.0.

Q: What about the IC50 [4] of the same compound?
A: The IC50 was 18.4 ± 3.2 µM.

Q: What about the “SI SW620” value [4] of the same compound?
A: The value was 4.7.

Q: What about the IC50 ([5]; Homo sapiens, PC-3, 72 h) of the same compound?
A: The IC50 was 12.5 ± 1.6 µM.

Q: What about the “SI PC3” value [5] of the same compound?
A: Its value is 6.9.

Q: And the IC50 [6]?
A: Its IC50 is 86.5 ± 2.1 µM.

Q: What about the MIC [7] of the same compound?
A: The MIC was 0.25 µg/mL (≈ 0.564 µM).

Q: And the MIC [8]?
A: The MIC was 0.25 µg/mL (≈ 0.564 µM).

Q: What about the MIC [9] of the same compound?
A: The MIC was 0.25 µg/mL (≈ 0.564 µM).

Q: And the MIC [10]?
A: Its MIC is 0.5 µg/mL (≈ 1.13 µM).

Q: And the MIC [11]?
A: Its MIC is 0.5 µg/mL (≈ 1.13 µM).

Q: What about the MIC [12] of the same compound?
A: Its MIC is 0.5 µg/mL (≈ 1.13 µM).

Q: What about the “MIC E. coli ATCC 25922” value ([13]; 18 h of treatment) of the same compound?
A: The value was 2 to 16 µg/mL.

Q: What about the MIC ([13]; ATCC25922, 18 h of treatment) of the same compound?
A: Its MIC is 8 µg/mL (≈ 18 µM).

Q: And the MIC [14]?
A: Its MIC is greater than 512 µg/mL.

Q: And the MIC [15]?
A: Its MIC is 32 µg/mL (≈ 72.2 µM).

Q: What about the MIC [16] of the same compound?
A: The MIC was 0.5 µg/mL (≈ 1.13 µM).

Q: And the MIC [17]?
A: Its MIC is 0.5 µg/mL (≈ 1.13 µM).

Q: And the MIC [18]?
A: Its MIC is 0.5 µg/mL (≈ 1.13 µM).

Q: What about the MIC [19] of the same compound?
A: Its MIC is 32 µg/mL (≈ 72.2 µM).

Q: And the MIC [20]?
A: Its MIC is 0.5 µg/mL (≈ 1.13 µM).

Q: What about the MIC [21] of the same compound?
A: The MIC was 0.5 µg/mL (≈ 1.13 µM).

Q: What about the MIC [22] of the same compound?
A: The MIC was 64 µg/mL (≈ 144 µM).

Q: And the MIC ([23]; 2 weeks of treatment)?
A: Its MIC is 64 µg/mL (≈ 144 µM).

Q: And the IC50 [1]?
A: The IC50 was 135 µM.

Q: What about the MIC [24] of the same compound?
A: The MIC was 0.25 to 1 µg/mL (≈ 0.564 to 2.25 µM).

Q: What about the MIC [25] of the same compound?
A: The MIC was 0.5 µg/mL (≈ 1.13 µM).

Q: What about the MIC ([26]; summary over strains) of the same compound?
A: Its MIC is 64 µg/mL (≈ 144 µM).

Q: And the IC50 [27]?
A: Its IC50 is 133 µM.

Q: For CCCCCCCC(=O)N1CCCC2CN(c3c(F)cc4c(=O)c(C(=O)O)cn(C5CC5)c4c3OC)CC21 (stereo not shown) [Compound 15m, 1-Cyclopropyl-6-fluoro-8-methoxy-7-(1-octanoyl-octahydro-pyrrolo[3,4-b]pyridin-6-yl)-4-oxo-1,4-dihydro-quinoline-3-carboxylic acid], which IC50 [3] is on record?
A: Its IC50 is 3.2 ± 0.8 µM.

Q: What about the “SI SW480” value [3] of the same compound?
A: Its value is 27.3.

Q: What about the IC50 [4] of the same compound?
A: Its IC50 is 4.7 ± 1.5 µM.

Q: And the “SI SW620” value [4]?
A: Its value is 18.6.

Q: And the IC50 ([5]; Homo sapiens, PC-3, 72 h)?
A: Its IC50 is less than 5 µM.

Q: What about the “SI PC3” value [5] of the same compound?
A: The value was 28.1.

Q: What about the IC50 [5] of the same compound?
A: Its IC50 is 3.1 ± 0.9 µM.

Q: And the IC50 [6]?
A: Its IC50 is 87.2 ± 3.6 µM.

Q: What about the MIC [7] of the same compound?
A: Its MIC is 4 µg/mL (≈ 7.58 µM).

Q: What about the MIC [8] of the same compound?
A: Its MIC is 4 µg/mL (≈ 7.58 µM).

Q: What about the MIC [9] of the same compound?
A: The MIC was 4 µg/mL (≈ 7.58 µM).

Q: What about the MIC [10] of the same compound?
A: Its MIC is 4 µg/mL (≈ 7.58 µM).

Q: What about the MIC [11] of the same compound?
A: The MIC was 4 µg/mL (≈ 7.58 µM).

Q: And the MIC [12]?
A: The MIC was 8 µg/mL (≈ 15.2 µM).

Q: And the MIC ([13]; ATCC25922, 18 h)?
A: The MIC was 128 µg/mL (≈ 243 µM).

Q: What about the MIC [14] of the same compound?
A: Its MIC is 512 µg/mL (≈ 970 µM).

Q: And the MIC [15]?
A: Its MIC is 8 µg/mL (≈ 15.2 µM).

Q: What about the MIC [16] of the same compound?
A: The MIC was 8 µg/mL (≈ 15.2 µM).

Q: And the MIC [17]?
A: Its MIC is 8 µg/mL (≈ 15.2 µM).

Q: And the MIC [18]?
A: Its MIC is 8 µg/mL (≈ 15.2 µM).

Q: And the MIC [19]?
A: Its MIC is 8 µg/mL (≈ 15.2 µM).

Q: And the MIC [20]?
A: The MIC was 4 µg/mL (≈ 7.58 µM).

Q: And the MIC [21]?
A: The MIC was 8 µg/mL (≈ 15.2 µM).

Q: What about the MIC [22] of the same compound?
A: The MIC was 256 µg/mL (≈ 485 µM).

Q: And the MIC [23]?
A: Its MIC is 128 µg/mL (≈ 243 µM).

Q: And the IC50 [28]?
A: The IC50 was less than 5 µM.

Q: And the MIC [24]?
A: Its MIC is 4 to 8 µg/mL (≈ 7.58 to 15.2 µM).

Q: And the MIC [29]?
A: Its MIC is 8 µg/mL (≈ 15.2 µM).

Q: What about the MIC [26] of the same compound?
A: Its MIC is no less than 128 µg/mL.
